Consider 32 compounds from ChEMBL document CHEMBL1145355, “From selective substrate analogue factor Xa inhibitors to dual inhibitors of thrombin and factor Xa. Part 3” (Bioorg Med Chem Lett, 2007).

Series [1] is described as follows: Anticoagulant activity in human plasma by aPTT assay. Format: functional.
In the next series the target is Trypsin (Homo sapiens, UniProt P07477+P07478+P35030). The series is described as follows: Inhibition of trypsin. It is filed as protein assay.
Series [2] concerns the target Urokinase-type plasminogen activator (Homo sapiens, UniProt P00749). In words: Inhibition of uPA.
Series [3] is described as follows: Inhibition of Plasmin. On the set-up: species or system Homo sapiens.
Series [4] relates to Plasma. The series is described as follows: Anticoagulant activity in human plasma by PT assay. It is filed as functional.
In series [5] the test system is Plasma. The series is described as follows: Anticoagulant activity in human plasma by TT assay. It is filed as functional.
A further series has as its target Prothrombin (Homo sapiens, UniProt P00734). In words: Inhibition of thrombin.
The next series concerns the target Coagulation factor X (Homo sapiens, UniProt P00742).
A short description of series [6]: Permeability across Caco-2 cell membrane. To be noted: human. Format: ADME, cell-based. A general note: Passage across Caco-2 layers is used to estimate intestinal permeability.

Coagulation factor X, sequence (P00742 41-179 limits assumed): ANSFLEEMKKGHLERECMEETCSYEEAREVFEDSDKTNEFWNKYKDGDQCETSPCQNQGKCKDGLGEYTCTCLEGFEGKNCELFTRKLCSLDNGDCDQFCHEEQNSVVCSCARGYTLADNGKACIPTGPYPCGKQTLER
Coagulation factor X, sequence (P00742 235-488 limits assumed): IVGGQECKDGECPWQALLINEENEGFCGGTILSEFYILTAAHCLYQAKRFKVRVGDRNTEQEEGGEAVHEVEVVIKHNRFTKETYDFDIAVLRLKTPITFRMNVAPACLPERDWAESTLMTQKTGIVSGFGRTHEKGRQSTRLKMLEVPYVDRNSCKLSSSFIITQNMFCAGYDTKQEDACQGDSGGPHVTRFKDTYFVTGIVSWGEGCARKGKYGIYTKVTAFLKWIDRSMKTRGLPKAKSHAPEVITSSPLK

The Ki is a measure of affinity in units of concentration, obtained from inhibition or displacement. Higher therefore signals a looser hold on the target. `NCc1ccc(Cl)cc1CNC(=O)CNC(=O)C(CCc1cccc[n+]1[O-])NCC(=O)O` (stereo not given): the IC200 in series [1] was 6 µM; with Plasma [4] it was 3.3 µM; with Plasma [5], greater than 100 µM. In addition, the Ki at Trypsin is greater than 0.5 µM; in series [2] it was greater than 5 µM; in series [3] it was greater than 5 µM; at Prothrombin, 125 µM.
In the case of `COC(=O)C(=O)N[C@H](CCc1cccc[n+]1[O-])C(=O)N1CCC[C@H]1C(=O)NCc1cc(Cl)ccc1CN`, the values for the IC200 (in [1]; in the series on Plasma [4]; in the series with Plasma [5]) were 0.3 µM, 0.79 µM and 0.13 µM, respectively. Further, the Ki was greater than 0.5 µM on Trypsin; greater than 5 µM in series [2]; greater than 5 µM in series [3]; 0.63 nM on Coagulation factor X; 0.0177 µM on Prothrombin.
`COC(=O)C(=O)NC(CCc1cccc[n+]1[O-])C(=O)N1CCC[C@H]1C(=O)NCc1cc(Cl)ccc1CN` (stereo not given in full): the inhibitory constant (Ki) on Trypsin was greater than 0.5 µM; in series [2], greater than 5 µM; in [3], greater than 5 µM; at Coagulation factor X, 0.87 nM; at Prothrombin, 0.019 µM.
As for `NCc1ccccc1CNC(=O)CNC(=O)C(CCc1cccc[n+]1[O-])NS(=O)(=O)Cc1ccccc1` (stereo not given), the Ki is greater than 0.5 µM at Trypsin; greater than 5 µM in series [2]; greater than 5 µM in series [3]; 32 nM at Coagulation factor X; 40 µM at Prothrombin.
Take `O=C(CNC(=O)C(CCc1cccc[n+]1[O-])NS(=O)(=O)Cc1ccccc1)NCc1ccc(Cl)s1` (stereo not given): the Ki is greater than 0.5 µM on Trypsin; greater than 5 µM in [2]; greater than 5 µM in series [3]; 53 nM on Coagulation factor X; 190 µM on Prothrombin.
On to `C[C@H](NC(=O)[C@@H](CCc1ccccn1)NS(=O)(=O)Cc1ccccc1)C(=O)NCc1cc(Cl)ccc1CN`, for which the Ki was greater than 0.5 µM on Trypsin; greater than 5 µM in series [2]; greater than 5 µM in series [3]; 0.084 nM at Coagulation factor X; 0.024 µM at Prothrombin.
Consider `Nc1ccc(CNC(=O)CNC(=O)C(CCc2cccc[n+]2[O-])NS(=O)(=O)Cc2ccccc2)cn1` (stereo not given), for which the Ki is greater than 0.5 µM at Trypsin; greater than 5 µM in series [2]; greater than 5 µM in series [3]; 21 nM at Coagulation factor X; 88 µM at Prothrombin.
Usually Papp stands for the rate of passage across a membrane or cell layer, normalised by area and donor concentration. A low value points to slow passage. Turning to `NCc1ccc(Cl)cc1CNC(=O)[C@@H]1CCCN1C(=O)[C@@H](CCc1ccccn1)NCC(=O)O`, the IC200 came out at 0.16 µM in series [1], 0.35 µM in the series on Plasma [4] and 0.03 µM with Plasma [5]. Moreover, the Ki is greater than 0.5 µM at Trypsin, greater than 5 µM in series [2] and greater than 5 µM in series [3]. Moreover, the Papp in [6] was found to be 5 ×10⁻⁶ cm/s.
In the case of `O=C(CNC(=O)[C@@H](CCc1cccc[n+]1[O-])NS(=O)(=O)Cc1ccccc1)NCCc1ccncc1`, the Ki was greater than 0.5 µM at Trypsin; greater than 5 µM in series [2]; greater than 5 µM in [3]; 3900 nM on Coagulation factor X; greater than 1000 µM on Prothrombin.
Take `NCc1ccc(Cl)cc1CNC(=O)CNC(=O)C(CCc1cccc[n+]1[O-])NS(=O)(=O)CC(=O)O` (stereo not given): the IC200 in series [1] was 0.89 µM; with Plasma [5], 57 µM. Further, the Ki at Trypsin was greater than 0.5 µM; in series [2] it was greater than 5 µM; in series [3] it was greater than 5 µM; on Prothrombin it was 8.3 µM.
As for `NCc1ccc(Cl)cc1CNC(=O)CNC(=O)C(CCc1cccc[n+]1[O-])NC(=O)CC(=O)O` (stereo not given), the Ki on Trypsin was greater than 0.5 µM; in series [2] it was greater than 5 µM; in [3], greater than 5 µM; on Prothrombin, 140 µM.
With `O=C(CNC(=O)C(CCc1cccc[n+]1[O-])NS(=O)(=O)Cc1ccccc1)NCc1cccs1` (stereo not given), the Ki at Trypsin was greater than 0.5 µM; in series [2], greater than 5 µM; in series [3], greater than 5 µM; on Coagulation factor X, 52 nM; on Prothrombin, 140 µM.
With `NCc1ccc(Cl)cc1CNC(=O)[C@@H]1CCCN1C(=O)[C@@H](CCc1cccc[n+]1[O-])NS(=O)(=O)CC(=O)O`, the IC200 in series [1] came to 0.15 µM; in the series on Plasma [5] it was 0.11 µM. For the same compound, the inhibition constant (Ki) on Trypsin is 0.061 µM; in [2], greater than 5 µM; in series [3] it was greater than 5 µM; on Prothrombin it was 0.0077 µM.
As for `COC(=O)C(=O)NC(CCc1cccc[n+]1[O-])C(=O)NCC(=O)NCc1cc(Cl)ccc1CN` (stereo not given), the Ki was greater than 0.5 µM at Trypsin; greater than 5 µM in [2]; greater than 5 µM in [3]; 4.9 nM on Coagulation factor X; 6.5 µM at Prothrombin.
Take `NCc1ccc(Cl)cc1CNC(=O)[C@H](CO)NC(=O)C(CCc1ccccn1)NS(=O)(=O)Cc1ccccc1` (stereo not given in full): the Ki on Trypsin was greater than 0.5 µM; in [2], greater than 5 µM; in series [3] it was greater than 5 µM; on Prothrombin, 0.25 µM.
Turning to `NCc1ccc(Cl)cc1CNC(=O)[C@@H]1CCCN1C(=O)[C@@H](CCc1ccc(O)cc1)NCC(=O)O`, the IC200 turned out to be 0.47 µM in series [1], 0.73 µM in the series with Plasma [4] and 0.15 µM with Plasma [5]. For the same compound, the Ki was greater than 0.5 µM on Trypsin, greater than 5 µM in [2], greater than 5 µM in series [3] and 0.0032 µM on Prothrombin.
For the compound `NCc1ccc(Cl)cc1CNC(=O)[C@@H]1CCCN1C(=O)[C@@H](CCc1cccc[n+]1[O-])NS(=O)(=O)Cc1ccccc1`, the Ki is 0.019 µM at Trypsin, greater than 5 µM in series [2], greater than 5 µM in series [3] and 0.00056 µM at Prothrombin.
With `CCOC(=O)CN[C@H](CCc1cccc[n+]1[O-])C(=O)N1CCC[C@H]1C(=O)NCc1cc(Cl)ccc1CN`, the values for the IC200 (in series [1]; in the series on Plasma [5]) were 0.18 µM and 0.1 µM, respectively. The Ki on Trypsin is greater than 0.5 µM; in series [2] it was greater than 5 µM; in [3], greater than 5 µM; at Coagulation factor X, 1.7 nM.
For the compound `NCc1ccc(Cl)cc1CNC(=O)[C@H](CCC(=O)O)NC(=O)C(CCc1cccc[n+]1[O-])NS(=O)(=O)Cc1ccccc1` (stereo not given in full), the Ki is greater than 0.5 µM on Trypsin, greater than 5 µM in series [2], greater than 5 µM in series [3] and 20 µM on Prothrombin.
`NCc1ccc(Cl)cc1CNC(=O)[C@H](CO)NC(=O)[C@@H](CCc1cccc[n+]1[O-])NS(=O)(=O)Cc1ccccc1`: the Ki on Trypsin is greater than 0.5 µM; in series [2], greater than 5 µM; in series [3], greater than 5 µM.
`CCCCCCOC(=O)CN[C@H](CCc1cccc[n+]1[O-])C(=O)N1CCC[C@H]1C(=O)NCc1cc(Cl)ccc1CN`: the Ki was greater than 0.5 µM on Trypsin, greater than 5 µM in series [2], greater than 5 µM in series [3] and 0.0078 µM on Prothrombin.
Turning to `NCc1ccc(Cl)cc1CNC(=O)[C@@H]1CCCN1C(=O)[C@@H](CCc1cccc[n+]1[O-])NCC(=O)O`, the IC200 in series [1] is 0.32 µM; with Plasma [5], 0.17 µM. The Ki on Trypsin was greater than 0.5 µM; in series [2], greater than 5 µM; in series [3] it was greater than 5 µM; on Coagulation factor X it was 0.94 nM; at Prothrombin, 0.0173 µM.
Turning to `N=C(N)c1ccc(CNC(=O)CNC(=O)[C@@H](CCc2cccc[n+]2[O-])NS(=O)(=O)Cc2ccccc2)cc1`, the Ki on Trypsin worked out at 0.0063 µM; at Coagulation factor X, 0.32 nM; on Prothrombin, 2.7 µM.
With `O=C(CNC(=O)C(CCc1cccc[n+]1[O-])NS(=O)(=O)Cc1ccccc1)NCc1cc(Cl)ccc1Cl` (stereo not given), the Ki at Trypsin is greater than 0.5 µM; in series [2] it was greater than 5 µM; in series [3] it was greater than 5 µM; at Coagulation factor X, 2.55 nM; at Prothrombin, 7.6 µM.
Regarding `NCc1ccc(Cl)cc1CNC(=O)CNC(=O)C(CCc1cccc[n+]1[O-])NS(=O)(=O)Cc1ccc(CC(=O)O)cc1` (stereo not given), the IC200 in [1] was 0.49 µM; in the series on Plasma [4] it was 0.29 µM; with Plasma [5] it was 1.2 µM. Also, the Ki at Trypsin is greater than 0.5 µM; in [2] it was greater than 5 µM; in series [3], greater than 5 µM; on Prothrombin it was 0.93 µM.
With `CC(C)OC(=O)CS(=O)(=O)NC(CCc1cccc[n+]1[O-])C(=O)NCC(=O)NCc1cc(Cl)ccc1CN` (stereo not given), the Ki is greater than 0.5 µM at Trypsin; greater than 5 µM in series [2]; greater than 5 µM in series [3]; 0.76 nM on Coagulation factor X; 0.53 µM on Prothrombin.
For `C[C@H](NC(=O)[C@@H](CCc1cccc[n+]1[O-])NS(=O)(=O)Cc1ccccc1)C(=O)NCc1cc(Cl)ccc1CN`, the Ki is greater than 0.5 µM at Trypsin, greater than 5 µM in [2], greater than 5 µM in series [3] and 0.17 µM on Prothrombin.
Turning to `O=C(CNC(=O)[C@@H](CCc1cccc[n+]1[O-])NS(=O)(=O)Cc1ccccc1)NCc1cccc(Cl)c1`, the Ki was greater than 0.5 µM on Trypsin; greater than 5 µM in series [2]; greater than 5 µM in [3]; 3.3 nM on Coagulation factor X; 10 µM on Prothrombin.
On to `CCOC(=O)CC(=O)NC(CCc1cccc[n+]1[O-])C(=O)NCC(=O)NCc1cc(Cl)ccc1CN` (stereo not given), for which the Ki is greater than 0.5 µM on Trypsin; greater than 5 µM in series [2]; greater than 5 µM in series [3]; 200 nM at Coagulation factor X; 40 µM on Prothrombin.
As for `NCc1ccc(Cl)cc1CNC(=O)[C@@H]1CCCN1C(=O)[C@@H](CCc1cccc[n+]1[O-])NCC(=O)OC1CCCCC1`, the Ki on Trypsin was greater than 0.5 µM; in [2], greater than 5 µM; in series [3], greater than 5 µM; at Prothrombin, 0.009 µM.
On to `COC(=O)Cc1ccc(CS(=O)(=O)NC(CCc2cccc[n+]2[O-])C(=O)NCC(=O)NCc2cc(Cl)ccc2CN)cc1` (stereo not given), for which the Ki at Trypsin is greater than 0.5 µM; in series [2] it was greater than 5 µM; in [3] it was greater than 5 µM; at Prothrombin it was 1.01 µM.
For `CCCS(=O)(=O)NC(CCc1cccc[n+]1[O-])C(=O)NCC(=O)NCc1cc(Cl)ccc1CN` (stereo not given), the IC200 was determined as 0.45 µM in series [1] and 6.5 µM in the series with Plasma [5]. The Ki was greater than 0.5 µM on Trypsin, greater than 5 µM in series [2], greater than 5 µM in series [3] and 2.7 µM on Prothrombin.
